Drawing on ChEMBL document CHEMBL2151036, “Chemocentric informatics approach to drug discovery: identification and experimental validation of selective estrogen receptor modulators as ligands of 5-hydroxytryptamine-6 receptors and as potential cognition enhancers” (J Med Chem, 2012), this text covers Ki for eleven compounds.

pKi: −log10 of the molar value.

5-hydroxytryptamine receptor 6, sequence (P50406 whole entry): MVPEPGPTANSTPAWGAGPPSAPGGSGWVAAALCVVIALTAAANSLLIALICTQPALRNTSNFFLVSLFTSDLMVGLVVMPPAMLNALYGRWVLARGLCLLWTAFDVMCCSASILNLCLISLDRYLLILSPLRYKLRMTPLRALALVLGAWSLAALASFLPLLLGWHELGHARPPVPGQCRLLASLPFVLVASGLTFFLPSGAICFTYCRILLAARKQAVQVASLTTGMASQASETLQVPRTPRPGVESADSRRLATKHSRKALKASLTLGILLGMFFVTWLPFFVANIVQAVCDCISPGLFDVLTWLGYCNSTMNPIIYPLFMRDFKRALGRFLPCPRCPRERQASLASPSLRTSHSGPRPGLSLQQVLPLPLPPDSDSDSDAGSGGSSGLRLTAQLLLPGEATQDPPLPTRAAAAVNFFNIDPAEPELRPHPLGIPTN

One test addresses 5-hydroxytryptamine receptor 6 (Homo sapiens, UniProt P50406). Nature of the test: Displacement of [3H]LSD from human 5HT6 receptor expressed in HEK293 cells after 1.5 hrs by liquid scintillation counting.
Conditions: not given; call rule not given here
Regarding `CN(C)CCCN1c2ccccc2CCc2ccc(Cl)cc21` [CLOMIPRAMINE], the pKi is 6.95.

The compound `O=C(c1ccc(OCCN2CCCCC2)cc1)c1c(-c2ccc(O)cc2)sc2cc(O)ccc12` [RALOXIFENE] gave a pKi of 6.12.

Turning to `CC/C(=C(\c1ccccc1)c1ccc(OCCN(C)C)cc1)c1ccccc1` [TAMOXIFEN], the negative-log Ki (pKi) was 5.98.

Compound `OCCN1CCN(CC/C=C2/c3ccccc3Sc3ccc(Cl)cc32)CC1` [ZUCLOPENTHIXOL] showed a pKi of 6.77.

Regarding `CN(C)CCOc1ccc(/C(=C(/CCCl)c2ccccc2)c2ccccc2)cc1` [TOREMIFENE], the negative logarithm of the Ki (pKi) is 5.38.

In the case of `CNCCC=C1c2ccccc2CCc2ccccc21` [NORTRIPTYLINE], the pKi is 6.67.

`O=C1NCN(c2ccccc2)C12CCN(CCCC(c1ccc(F)cc1)c1ccc(F)cc1)CC2`: the pKi is 5.93.

`CCN(CC)CCOc1ccc(C(=C(Cl)c2ccccc2)c2ccccc2)cc1` [CLOMIPHENE]: the negative logarithm of the Ki (pKi) is 5.71.

The same test, now with this note: hek293.
As to `O=c1cc(N2CCOCC2)oc2c(-c3ccccc3)cccc12` [LY-294002], the Ki result is “Not Active”.

Turning to `COc1ccccc1N1CCN(CCCCNC(=O)c2ccc3ccccc3c2)CC1` [BP-897], the Ki result is “Not Active”.

`CC(NCCC(c1ccccc1)c1ccccc1)c1ccccc1` (stereo unspecified) [FENDILINE]: the Ki result is reported as “Not Active”.

The term pKi denotes −log10 of the Ki, conventionally taken in molar units. Read a high pKi as a low Ki.
